In assay [1] the target is T1, IN/DNA complexes (Human immunodeficiency virus type 1 group M subtype B, UniProt P04585). As to the kind of experiment: DNA-binding of integrase, fluorescence anisotropy. It is filed as biochemical, HIV-1. As for the experimental part: (§1) The simultaneous measurement of integrase-DNA interaction and subsequent 3′-processing activity by steady-state fluorescence anisotropy was performed as described in Guiot et al. (2006). […] After the initial DNA-binding step (performed at 25° C.), the 3′-processing activity was measured at 37° C. by fixed-time experiments: The reaction was stopped at varying times by adding SDS (0.25% final) which disrupts all IN-DNA complexes in the sample. The IN-mediated cleavage of the terminal GT dinucleotide (labeled by fluorescein on the 3′-end) leads to a significant decrease of r as compared to the r value corresponding to the fluorescein-labeled unprocessed DNA substrate. The fraction of released dinucleotide is calculated by using Eq. (1): […]
For orientation: In fluorescence polarisation assays a small probe gives low polarisation when free and higher when bound to something large.

In a further assay the test system is HIV-1 strain 2165. Particulars: peptide with Pep-1 or Pep-3 at ratio 20/1, combinations with Pep-3.
Assay [2] concerns efavirenz-resistance HIV strain harbouring K103N and N341V mutations on reverse transcriptase. It is filed as in vivo, Hu-PBL-SCID transgenic mice. Particulars: EFZ resistance strain; 20 mg/kg/day; peptides formulated with CADY-2c/CADY-1S1. How it is done: (§2) The potency of the peptides p27 (SEQ ID NO: 25) and p16 (SEQ ID NO: 19) was assessed in vivo following intravenous challenge of Hu-PBL-SCID transgenic mice (in which human (hu) peripheral blood leukocytes (PBLs) from healthy Epstein-Barr virus (EBV)-seropositive donors are injected into severe combined immunodeficiency (SCID) mice; Mosier et al., 1988). The mice (6 to 8 week-old male mice, 5 animals per group) were infected with wild type HIV 1 virus or efavirenz-resistance HIV strain harbouring K103N and N341V mutations on reverse transcriptase. Infected mice were treated with peptides formulated with the peptide vector CADY-2c (see above) in water at a ratio 1/20, and then particles were coated with 3% of CADY-1S1 (see above), as described in International Application WO 2007/069090. Particles were injected intravenously (100 μl) every 2 days for 1 week, then HIV-1 copy were quantified by quantitative PCR. Efavirenz (a non-nucleoside reverse transcriptase inhibitor; EFZ) was used a positive drug control.

A further assay relates to HIV-1 strain 2914. Particulars: peptide with Pep-1 or Pep-3 at ratio 20/1, combinations with Pep-3.
A further assay has as its system HIV-1 strain NDK. Particulars: peptide with Pep-1 or Pep-3 at ratio 20/1, combinations with Pep-3.
In a further assay the test system is HIV-1-LAI strain. How it is done: The anti-HIV activities of the peptides were assayed according to the methods described in Roisin et al. (2004). Phytohemagglutinin-P(PHA-P)-activated peripheral blood mononuclear cells (PBMC) treated by increasing concentrations of peptide (from 100 to 0.1 nM), one hour later, were infected with hundred 50% tissue culture infectious doses (TCID50) per 100,000 cells of the HIV-1-LAI strain (Barre-Sinoussi et al., 1983). This virus was amplified in vitro on PHA-P-activated PBMC. Viral stock was titrated using PHA-P-activated PBMC, and 50% TCID50 were calculated using Kärber's formula (Kärber, 1931). Samples were maintained throughout the culture, and cell supernatants were collected at day 7 post-infection and stored at −20° C. Viral replication was measured by quantifying reverse transcriptase (RT) activity in cell culture supernatants. In parallel, cytotoxicity of the compounds was evaluated in uninfected PHA-P-activated PBMC by colorimetric 3-(4-5 dimethylthiazol-2-yl)2,5diphenyl tetrazolium bromite (MTT) assay on day 7 (as described in Mossmann, 1983). Experiments were performed in triplicate and repeated with another blood donor. Data analyses were performed using SofiMax® Pro 4.6 microcomputer software: percent of inhibition of RT activity or of cell viability were plotted vs concentration and fitted with quadratic curves; 50% effective doses (ED50) and cytotoxic doses (CD50) were calculated.
In order to avoid any limitation due to the poor ability of peptides to cross cellular membranes, they were associated to the peptide-based nanoparticle delivery system Pep-1 (SEQ ID NO: 29), at a 1/10 molar ratio.

The next assay deals with wild type HIV 1 virus. As to the kind of experiment: HIV propagation in Hu-PBL-SCID mice, wild type virus. It is filed as in vivo, Hu-PBL-SCID transgenic mice. Particulars: 20 mg/kg; peptides formulated with CADY-2c/CADY-1S1; HIV-1 DNA copies in splenocyte extracts. As for the experimental part: as §2
In assay [3] the target is T1, IN/DNA complexes. As to the kind of experiment: Dissociation of pre-formed IN-DNA substrate complexes. In kind it is biochemical, HIV-1. As for the experimental part:
For dissociation experiments, IN-DNA substrate complexes were pre-formed at 25° C. before addition of peptides. The peptide-mediated dissociation of complexes was then studied at the same temperature by measuring the decrease in the r value as a function of time.

In assay [4] the target is T2, HIV-1 integrase (Human immunodeficiency virus type 1 group M subtype B, UniProt P04585).
T2 construct: Integrase is a 32 kDA viral protein that is biologically active under a multimeric form
The assay can be described thus: biochemical. In kind it is binding. As for the experimental part:
Fluorescein-labeled peptides (40 nM) were mixed with varying concentrations of integrase in 20 mM Tris pH 7.2, 50 mM NaCl, 10 mM MgCl2, and the r values were recorded.
Effect of the different peptides on the integrase (IN) activity, DNA binding and IN/DNA dissociation were evaluated as described in Example III.1 above, using fluorescence polarization and anisotropy measurements. Binding constant of the peptide for IN was determined by steady state fluorescence and anisotropy.

In a further assay the test system is HIV-1 strain RF. Particulars: strain RF (RP in Table 5); peptide with Pep-1 or Pep-3 at ratio 20/1; combinations with Pep-3.
In the next assay the test system is HIV-1 strain BH10. Particulars: peptide with Pep-1 or Pep-3 at ratio 20/1, combinations with Pep-3.
Assay [5] concerns the target T2, HIV-1 integrase. The assay can be described thus: biochemical. How it is done:
as §1

The mark [6] stands for this setting: read-out: EC50 HIV-1 lai, Table 10.

Where two headings read alike, the source gives them in different places. Where no end group is shown, it is not given here. Some results are limits rather than exact numbers.

These results are taken from patent US20110294728A1, “Antiviral Polypeptides” (priority 2008, published 2011).

One may read the EC50 as the concentration needed to bring the measured effect to its halfway point. A word on the IC50: it is the concentration at which inhibition is half-maximal. The Kd is the concentration at which binding is half-saturated. As usually defined, the Ki is the equilibrium dissociation constant of an inhibitor or competing ligand from its target.

For GTKWLTEVWPL [Peptide P16], the EC50 at IN/DNA complexes [1] stood at 8000 nM; in the assay with HIV-1-LAI strain (setting [6]), 5.9 nM; at IN/DNA complexes [3], 11000 nM; on HIV-1 integrase [5] it was 10000 nM. In addition, the IC50 in the assay with HIV-1 strain 2165 came out at 2.7 nM; with HIV-1 strain 2914, 1.7 nM; in the assay with HIV-1 strain NDK it was 2.9 nM; in the assay with HIV-1 strain RF, 10.9 nM; in the assay with HIV-1 strain BH10 it was 5.9 nM. Besides, the “reduction of viral propagation” value in [2] is 58%. Further, in the assay with wild type HIV 1 virus, the “HIV propagation in vivo (in words)” value is “block HIV propagation in vivo”. For the same sequence, at HIV-1 integrase [4], the Kd was found to be 0.12 µM. Further, the Ki at HIV-1 integrase [5] stood at 10000 nM.

Consider GTKWLTEWIPLTAE [Peptide P27], for which the EC50 is above 100000 nM at IN/DNA complexes [1]; above 1000 nM with HIV-1-LAI strain (PBMC, HIV-1 LAI, day 7, /Pep-1 = associated to Pep-1 at 1/10 molar ratio); 0.21 nM with HIV-1-LAI strain (setting [6]); above 100000 nM on IN/DNA complexes [3]; above 100000 nM on HIV-1 integrase [5]. Also, the IC50 in the assay with HIV-1 strain 2165 was 2.6 nM; in the assay with HIV-1 strain 2914, 0.2 nM; with HIV-1 strain NDK, 0.3 nM; in the assay on HIV-1-LAI strain (read-out: IC50, antiviral activity, text b123, peptide with Pep-1), below 0.32 nM; in the assay on HIV-1 strain RF it was 1.5 nM; in the assay with HIV-1 strain BH10 it was 1.4 nM. Also, the “reduction of viral propagation” value in [2] is on record as 72%. Further, in the assay with wild type HIV 1 virus, the “HIV propagation in vivo (in words)” value was “block HIV propagation in vivo”. For the same sequence, the Kd at HIV-1 integrase [4] is above 100 µM; on HIV-1 integrase [4] (read-out: Kd IN binding, Table 10, cell prints μM), above 100 µM. Further, the Ki at HIV-1 integrase [5] is above 100000 nM.
